Test results taken from ChEMBL document CHEMBL1201862, “PubChem BioAssay data set” (2004).
Where “and” joins values, the source holds several entries; their conditions need not be identical. Equal entries are not always repeated.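 These data come from cells grown in 96-well plates and exposed to compound for 48 hours at five concentrations. GI50 marks 50% less growth.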 Calls of active or inactive are those of the source. Cut-off read from the data, not from the text of the source: active = GI50 up to about 1.1 µM and inactive = higher. Where a SMILES comes first, the peptide text is derived from it. [ ]: non-standard residue; d: D form. The star is where a group is joined. Octanoyl = CCCCCCCC(=O)*; Aib = CC(C)(N)C(=O)O; tBu = CC(C)(C)*

Columns and labels:
Assay in all cases: NCI tumour cell line growth inhibition, 48 h
ACHN = system: ACHN
HCT-116 = system: HCT-116
HCT-15 = system: HCT-15
HT-29 = system: HT-29
KM12 = system: KM12
MOLT-4 = system: MOLT-4
NCI-H460 = system: NCI-H460
OVCAR-5 = system: OVCAR-5
SF-539 = system: SF-539
SK-OV-3 = system: SK-OV-3
SNB-75 = system: SNB-75
SR = system: SR
SW-620 = system: SW-620
U-251 = system: U-251
XF498 = system: XF498
UACC-257 = system: UACC-257
UACC-62 = system: UACC-62
DU-145 = system: DU-145
MCF7 = system: MCF7
PC-3 = system: PC-3

Measured: GI50

COc1ccc(C(C2=C(C)C(=O)c3ccccc3C2=O)c2ccc(C(C)C)cc(=O)c2O)cc1 (centres undefined)
inactive: ACHN 3.05 µM | HCT-116 3.81 µM | HT-29 6.04 µM | KM12 4.3 µM | MOLT-4 3.47 µM | NCI-H460 3.78 µM | OVCAR-5 2.06 µM | SF-539 2.69 µM | SK-OV-3 3.49 µM | SNB-75 2.59 µM | SR 3.29 µM | SW-620 6.1 µM | U-251 3.12 µM
active: XF498 0.685 µM
2.58 µM: HCT-15

OC(c1ccccc1)(c1ccccc1)c1ccccn1
> 100 µM: HCT-15
inactive: ACHN > 100 µM | HCT-116 > 100 µM | HT-29 > 100 µM | KM12 > 100 µM | MOLT-4 > 100 µM | NCI-H460 > 100 µM | OVCAR-5 > 100 µM | SF-539 > 100 µM | SK-OV-3 > 100 µM | SNB-75 > 100 µM and 63.7 µM | SR > 100 µM | SW-620 > 100 µM | U-251 > 100 µM | UACC-257 > 100 µM | UACC-62 > 100 µM | XF498 > 100 µM

N#CC1(C#N)C2C=CC(c3coc4cccc2c34)C1(C#N)C#N (centres undefined)
inactive: ACHN 5.53 µM | HCT-116 2.49 µM | HT-29 18.9 µM | KM12 18.3 µM | MOLT-4 1.67 µM | NCI-H460 19.4 µM | OVCAR-5 17 µM | SF-539 20.2 µM | SK-OV-3 17.7 µM | SNB-75 19.4 µM | SR 3.01 µM | SW-620 1.61 µM | U-251 19.5 µM | UACC-257 10.8 µM | UACC-62 10.2 µM | XF498 4.99 µM
7.08 µM: HCT-15

O=C1OC(O)c2cc3c(cc21)OCO3 (centres undefined)
inactive: HCT-116 > 100 µM | HT-29 > 100 µM | KM12 > 100 µM | MOLT-4 > 100 µM | NCI-H460 > 100 µM | SF-539 > 100 µM | SK-OV-3 > 100 µM | SNB-75 > 100 µM | SW-620 > 100 µM | U-251 > 100 µM | UACC-257 > 100 µM | UACC-62 > 100 µM | XF498 > 100 µM
> 100 µM: HCT-15

COc1cc(CC(=O)c2cc3c(cc2-c2ccccc2)OCO3)cc(OC)c1OC
66.5 µM: HCT-15
inactive: ACHN 6.95 µM | HCT-116 43.9 µM | HT-29 > 100 µM | KM12 > 100 µM | MOLT-4 17.7 µM | NCI-H460 67.9 µM | OVCAR-5 > 100 µM | SF-539 17.5 µM | SK-OV-3 49.3 µM | SNB-75 1.18 µM | SR 19.1 µM | SW-620 43.4 µM | U-251 71.6 µM | UACC-257 23.4 µM | XF498 17.1 µM

CC1=C(C)C(=O)c2c(cc3c4ccccc4ccn23)C1=O
> 100 µM: HCT-15
inactive: ACHN > 100 µM | HCT-116 > 10 µM | HT-29 > 100 µM | KM12 > 100 µM | MOLT-4 > 100 µM | NCI-H460 > 100 µM | SF-539 > 100 µM | SK-OV-3 > 100 µM | SNB-75 > 100 µM | SW-620 > 100 µM | U-251 > 100 µM | UACC-257 > 100 µM | UACC-62 > 100 µM | XF498 63.8 µM

CCCCCCCCCCCCCCCC(=O)OCC1OC(N2C(=O)/C(=N\NC(N)=S)c3ccc([N+](=O)[O-])cc32)C(OC(C)=O)C1OC(C)=O (centres undefined)
inactive: ACHN 48.5 µM | HCT-116 29 µM | HT-29 > 100 µM | KM12 74.1 µM | MOLT-4 > 100 µM | NCI-H460 > 100 µM | OVCAR-5 > 100 µM | SF-539 > 100 µM | SK-OV-3 48.4 µM | SNB-75 > 100 µM | SR > 100 µM | SW-620 > 100 µM | U-251 78 µM | UACC-257 > 100 µM | UACC-62 69.7 µM | XF498 > 100 µM
86.1 µM: HCT-15

Cc1cc2c(=O)cc(-c3ccc(O)cc3)oc2c(C(=O)O)c1C
> 100 µM: HCT-15
inactive: ACHN > 100 µM | HCT-116 > 100 µM | HT-29 > 100 µM | KM12 > 100 µM | MOLT-4 > 100 µM | NCI-H460 > 100 µM | OVCAR-5 > 100 µM | SF-539 > 100 µM | SK-OV-3 > 100 µM | SNB-75 > 100 µM | SR > 100 µM | SW-620 > 100 µM | U-251 > 100 µM | UACC-257 > 100 µM | UACC-62 > 100 µM | XF498 > 100 µM

Nc1nc2c3nc(Nc4ccccc4)sc3nc(=S)n2c2sc(Nc3ccccc3)nc12
> 100 µM: HCT-15
inactive: ACHN > 100 µM | HCT-116 > 100 µM | HT-29 > 100 µM | SF-539 > 100 µM | SK-OV-3 > 100 µM | SNB-75 50.8 µM | SR 5.19 µM | SW-620 > 100 µM | U-251 15.5 µM | UACC-257 > 100 µM | UACC-62 46.7 µM | XF498 1.98 µM

CCOC(=O)C/N=c1\nc(SC)sc2c(C(=O)OCC)nc(Sc3ccccc3)n12
inactive: HCT-116 32.1 µM | HT-29 > 100 µM | KM12 > 100 µM | OVCAR-5 > 100 µM | SK-OV-3 > 100 µM | SR 4.74 µM | SW-620 > 100 µM | UACC-257 28.6 µM | UACC-62 > 100 µM | XF498 41.2 µM

Cc1c(C(=O)/C=C/C=C/c2ccccc2)[n+]([O-])c2ccccc2[n+]1[O-]
inactive: ACHN 25.7 µM | HT-29 > 10 µM | KM12 16.8 µM | MOLT-4 40.5 µM | NCI-H460 18.8 µM | OVCAR-5 66.1 µM | SF-539 40 µM | SK-OV-3 40.5 µM | SNB-75 34.2 µM | SW-620 22.4 µM | U-251 33.7 µM | UACC-257 28.2 µM | UACC-62 16 µM | XF498 35 µM
15.2 µM: HCT-15

COc1cc(OC)c2c(=O)c3cccc([N+](=O)[O-])c3n(C)c2c1
inactive: HT-29 > 100 µM | KM12 > 100 µM | MOLT-4 47 µM | SF-539 74 µM | SK-OV-3 > 100 µM | SNB-75 > 100 µM | SW-620 > 100 µM | U-251 > 100 µM | UACC-257 87.9 µM | UACC-62 > 100 µM | XF498 > 100 µM
> 100 µM: HCT-15

Cc1ccc(-c2cc(-c3ccco3)nc(N)n2)o1
> 100 µM: HCT-15
inactive: ACHN > 100 µM | HCT-116 > 100 µM | HT-29 > 100 µM | KM12 > 100 µM | MOLT-4 > 100 µM | NCI-H460 > 100 µM | OVCAR-5 > 100 µM | SF-539 > 100 µM | SNB-75 37.2 µM | SR > 100 µM | SW-620 > 100 µM | UACC-62 > 100 µM | XF498 > 100 µM

[O-][S+](Cc1ccccc1)c1nc2ccccc2nc1-c1cccs1 (centres undefined)
inactive: ACHN 13.9 µM | HCT-116 10.4 µM | HT-29 11.7 µM | KM12 16 µM | MOLT-4 3.53 µM | NCI-H460 20 µM | OVCAR-5 17.6 µM | SF-539 16.4 µM | SK-OV-3 29 µM | SNB-75 17.6 µM | U-251 18.4 µM | UACC-257 13.2 µM | XF498 2.52 µM
9.29 µM: HCT-15

CCCCC(C(=O)C(=O)Nc1ccccc1CC)C(=O)C(C)C (centres undefined)
> 100 µM: HCT-15
inactive: ACHN > 100 µM | HCT-116 > 100 µM | HT-29 > 100 µM | KM12 > 100 µM | MOLT-4 > 100 µM | NCI-H460 > 100 µM | OVCAR-5 > 100 µM | SF-539 > 100 µM | SK-OV-3 > 100 µM | SW-620 > 100 µM | U-251 > 100 µM | UACC-257 > 100 µM | UACC-62 > 100 µM | XF498 > 100 µM

CCCCCCCC(=O)NC(C)(C)C(=O)NC(COC(C)(C)C)C(=O)NC(CC(C)C)C(=O)NC(C)(C)C(=O)NC(COC(C)(C)C)C(=O)NC(COC(C)(C)C)C(=O)NC(CC(C)C)C(=O)NC(C)(C)C(=O)NC(COC(C)(C)C)C(=O)NC(C(=O)NC(CC(C)C)C(=O)OC)C(C)CC (centres undefined) (Octanoyl-[Aib]S(tBu)L[Aib]S(tBu)S(tBu)L[Aib]S(tBu)IL-OMe; configuration not given here)
8.13 µM: HCT-15
inactive: ACHN 7.62 µM | DU-145 6.9 µM | HCT-116 7.18 µM | HT-29 4.94 µM | KM12 6.67 µM | MCF7 5.98 µM | MOLT-4 5.52 µM | NCI-H460 5.64 µM | OVCAR-5 6.5 µM | PC-3 4.23 µM | SF-539 8.49 µM | SK-OV-3 11.8 µM | SNB-75 5.24 µM | SR 5.62 µM | SW-620 8.95 µM | U-251 5.24 µM | UACC-257 8.81 µM | UACC-62 7.8 µM

O=C(O)c1cc(N(Cc2ccccc2O)Cc2cc(O)ccc2O)ccc1O [LAVENDUSTIN A]
> 100 µM: HCT-15
inactive: ACHN > 100 µM | DU-145 > 100 µM | HCT-116 > 100 µM | HT-29 > 100 µM | KM12 > 100 µM | MCF7 > 100 µM | MOLT-4 > 100 µM | NCI-H460 > 100 µM | OVCAR-5 > 100 µM | PC-3 42.3 µM | SF-539 > 100 µM | SK-OV-3 > 100 µM | SNB-75 > 10 µM | SR 82.8 µM | SW-620 > 100 µM | U-251 > 100 µM | UACC-257 > 100 µM | UACC-62 > 100 µM
